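Step 1: Grow cells in 96-well plates. Step 2: Expose to compound for 48 hours at 5 concentrations. Step 3: Interpolate endpoints linearly; if unreached, use highest concentration. TGI: total growth inhibition.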

Test systems include XF 498 CNS; M19-MEL melanoma; DLD-1 colon; HOP-18 NSCLC; DMS 114 small cell lung; KM20L2 colon; RXF-631 renal; SN12K1 renal; P388/ADR leukemia; P388 leukemia.
Common to all, as to test: NCI tumour cell line growth inhibition, 48 h

Take `COc1cc2c(cc1OC)C(Cl)C(c1ccc(Cl)cc1)=C2Cl` (stereo not given): the TGI with XF 498 CNS stood at 9.09 µM; with M19-MEL melanoma, 41.3 µM; in the test on DLD-1 colon it was 37.8 µM; in the test with HOP-18 NSCLC, 31.7 µM; in the test on DMS 114 small cell lung, 28.6 µM; in the test on KM20L2 colon it was 39.5 µM. In the test with RXF-631 renal, the TGI was 51.7 µM.

For `COc1cc2ccc1-c1cc(ccc1O)CC1c3cc4c(cc3CCN1C)Oc1c(OC)cc3c(c1O4)C(C2)N(C)CC3` (stereo not given), the TGI was 3.44 µM in the test on XF 498 CNS; 3.36 µM with M19-MEL melanoma; 5.27 µM in the test on DLD-1 colon; 3.48 µM with DMS 114 small cell lung; 2.97 µM with KM20L2 colon.

With `CN(C)CCNC(=O)c1cccc2nc3c4ccccc4c4ccccc4c3nc12`, the TGI in the test with XF 498 CNS stood at 9.06 µM; in the test with M19-MEL melanoma it was 3.4 µM; in the test on DLD-1 colon, 2.9 µM; in the test on HOP-18 NSCLC, 20.1 µM; in the test on KM20L2 colon, 10.3 µM.

For the molecule `CC(C)(C)C1CCC2(CC1)CCN(CCCN1CCOCC1)CC2`, the TGI with M19-MEL melanoma was 25.9 µM; with DLD-1 colon, > 100 µM; in the test with DMS 114 small cell lung, 33.9 µM; with KM20L2 colon, 5.24 µM; in the test with RXF-631 renal, 31 µM.

For the molecule `Oc1cc(O)cc(/C=C/c2ccc(O)c(O)c2)c1`, the TGI is 41.7 µM with M19-MEL melanoma; 18.3 µM with SN12K1 renal; > 67.5 µM in the test with P388/ADR leukemia; > 31.6 µM in the test on DLD-1 colon; > 66.9 µM with P388 leukemia; > 100 µM in the test with HOP-18 NSCLC. The values for the TGI with DMS 114 small cell lung and in the test with KM20L2 colon were 22.1 µM and 86.1 µM, respectively.

Consider `Cc1cc(=O)[nH]c(NN2C(Cl)C(=O)C2c2cccc([N+](=O)[O-])c2)n1` (stereo not given), for which the TGI with M19-MEL melanoma was 49.1 µM; in the test with HOP-18 NSCLC it was 78 µM; with DMS 114 small cell lung, 55.4 µM; with KM20L2 colon, > 100 µM.

Consider `CN(C)c1ccc(C2CC(=O)C(C#N)=C(c3ccccc3)NN2C)cc1` (stereo not given), for which the TGI in the test with XF 498 CNS is 38.3 µM; with DLD-1 colon it was > 100 µM; with HOP-18 NSCLC it was > 100 µM; in the test with DMS 114 small cell lung, > 100 µM; with RXF-631 renal it was > 100 µM.

`CN(C)[C@@H]1C(=O)C(C(=O)NCNCCCC(=O)O)=C(O)[C@@]2(O)C(=O)C3=C(O)c4c(O)cccc4[C@@](C)(O)[C@H]3C[C@@H]12`: the TGI in the test with XF 498 CNS, with M19-MEL melanoma, in the test on DLD-1 colon, in the test on HOP-18 NSCLC, with DMS 114 small cell lung and in the test on KM20L2 colon was > 100 µM in each case.

The values above are taken from PubChem BioAssay (NCI).
